The values below come from ChEMBL document CHEMBL3137667, “[Drug-induced liver injury; fourteenth updated edition of the bibliographic database of liver injuries and related drugs]” (Gastroenterol Clin Biol, 2004).

Molecules are shown by their SMILES.

Series [1] can be described thus: Comments (NB not yet translated). [column 'COMMENTAIRES' in source]. As to conditions: human.
For series [2] the following is noted: human.
The conditions of series [3]: human, serum, 4383 h.
For series [4] the following is noted: human. This is another data set of the same source.
Series [5] in a line: Proposed mechanism(s) of liver damage. [column 'MEC' in source]. As to conditions: human.
For series [6] the following is noted: human. The source holds these as a separate data set.
Series [7] can be described thus: Times to onset, minimal and maximal, observed in the indexed observations. [column 'DELAI' in source]. As to conditions: human.
The conditions of series [8]: human. The source holds these as a separate data set.
For series [9] the following is noted: human. The source holds these as a separate data set.
The conditions of series [10]: human. The source holds these as a separate data set.
For series [11] the following is noted: human. The source holds these as a separate data set.
For series [12] the following is noted: human. This is another data set of the same source.
For series [13] the following is noted: human. The source holds these as a separate data set.
The nature of series [14]: Presence of at least one case with successful reintroduction. [column 'REINT' in source]. As to conditions: human.
Series [15] is described as follows: Highest frequency of acute liver toxicity observed during clinical trials, expressed as a percentage. [column '% AIGUE' in source]. As to conditions: human.
The conditions of series [16]: human, serum.
Series [17] can be described thus: Highest frequency of moderate liver toxicity observed during clinical trials, expressed as a percentage. [column '% BIOL' in source]. As to conditions: human.
The conditions of series [18]: human, serum. This is another data set of the same source.
The conditions of series [19]: human. This is another data set of the same source.
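For Hepatotoxicity (association with vascular disease) in this document: count of indexed literature references reporting vascular liver injury in humans, e.g. peliosis hepatitis, hepatic veno-occlusive disease or Budd-Chiari syndrome.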
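For Hepatotoxicity (benign tumour) in this document: value is a count of indexed literature references citing a benign tumour confirmed by histopathology.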
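For Hepatotoxicity (choleostasis) in this document: human cholestatic liver injury, shown by histopathology or by peak ALT or AST elevation over alkaline phosphatase ratio below 2, value counts indexed literature reports.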
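For Hepatotoxicity (chronic liver disease) in this document: chronic liver injury confirmed by histopathology or persistently raised serum aminotransferase activity beyond 6 months, value given as the count of indexed literature references.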
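For Hepatotoxicity (cirrhosis) in this document: value is a count of indexed literature references reporting cirrhosis confirmed by histopathology.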
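For Hepatotoxicity (cytolytic) in this document: human cytolytic liver injury, shown by histopathology or by a ratio above 5 of peak ALT or AST elevation to alkaline phosphatase elevation, value counts indexed references.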
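For Hepatotoxicity (granulomatous hepatitis) in this document: value is a count of indexed literature references reporting granulomatous liver disease confirmed by histopathology.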
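For Hepatotoxicity (malignant tumour) in this document: malignant tumour confirmed by histopathology, value gives the count of indexed literature references reporting it.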
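For Hepatotoxicity (severe hepatitis) in this document: human clinical data: severe hepatitis, meaning potentially life-threatening liver failure or clinically observed cases, the value counts how many indexed literature references report it.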
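For Hepatotoxicity (steatosis) in this document: steatosis confirmed by histopathology, value is the count of indexed references.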

For the compound `CC(=O)Nc1ccc(O)cc1` [ACETAMINOPHEN], the “Hepatotoxicity (comment)” value in series [1] is given as “I/ALCOOL/PHENYTOINE/PHENOBARBITAL/IFN/ZIDOVUDINE #CBP”. In series [2], the “Hepatotoxicity (steatosis)” value is reported as 1. Also, the “Hepatotoxicity (chronic liver disease)” value in [3] is recorded as 7. Moreover, the “Hepatotoxicity (benign tumour)” value in series [4] is 0. Further, in series [5], the “Hepatotoxicity (mechanism)” value is recorded as “Allergic, Toxic Metabolite”. In addition, the “Hepatotoxicity (malignant tumour)” value in series [6] stood at 0. The “Hepatotoxicity (time to onset)” value in series [7] amounted to 1 day - 12 years. In series [8], the “Hepatotoxicity (cytolytic)” value was found to be 98. Moreover, in [9], the “Hepatotoxicity (granulomatous hepatitis)” value is given as 1. In addition, the “Hepatotoxicity (animal toxicity known)” value in [10] is “yes”. Further, the “Hepatotoxicity (cirrhosis)” value in series [11] is on record as 5. For the same compound, in series [12], the “Hepatotoxicity (choleostasis)” value came to 5. Further, the “Hepatotoxicity (association with vascular disease)” value in series [13] is listed as 0. Moreover, the “Hepatotoxicity (successful reintroduction)” value in series [14] is recorded as “yes”.
Consider `O=C1CN(/N=C/c2ccc(-c3ccc([N+](=O)[O-])cc3)o2)C(O)=N1` [DANTROLENE], for which the results for the “Hepatotoxicity (acute)” value in [15] and in series [18] were 0.6% and 11, respectively. The “Hepatotoxicity (comment)” value in [1] was “CHOLANGITE”. Further, the “Hepatotoxicity (steatosis)” value in series [2] is reported as 0. Further, the “Hepatotoxicity (moderate)” value in [16] came to 11; in series [17], 1.8%. The “Hepatotoxicity (chronic liver disease)” value in series [3] worked out at 1. For the same compound, the “Hepatotoxicity (benign tumour)” value in series [4] is given as 0. For the same compound, in series [6], the “Hepatotoxicity (malignant tumour)” value is 0. For the same compound, the “Hepatotoxicity (time to onset)” value in series [7] was found to be 7 days - 1 year. Further, in [8], the “Hepatotoxicity (cytolytic)” value came out at 10. Also, the “Hepatotoxicity (granulomatous hepatitis)” value in [9] is 0. Further, the “Hepatotoxicity (animal toxicity known)” value in [10] is on record as “yes”. Besides, the “Hepatotoxicity (cirrhosis)” value in [11] stood at 0. In addition, the “Hepatotoxicity (choleostasis)” value in [12] came out at 6. The “Hepatotoxicity (association with vascular disease)” value in [13] stood at 0. For the same compound, in series [14], the “Hepatotoxicity (successful reintroduction)” value is given as “yes”. Moreover, the “Hepatotoxicity (severe hepatitis)” value in series [19] turned out to be 7.
For `NC(N)=Nc1nc(CSCCN/C=N/S(=O)(=O)c2ccc(Br)cc2)cs1` [EBROTIDINE], the “Hepatotoxicity (acute)” value is recorded as 0% in [15] and 2 in series [18]. Further, the “Hepatotoxicity (comment)” value in series [1] was “AC_ANTI-ML”. Moreover, in series [2], the “Hepatotoxicity (steatosis)” value was found to be 0. Moreover, the “Hepatotoxicity (moderate)” value in series [16] was found to be 0; in series [17], 0%. In addition, the “Hepatotoxicity (chronic liver disease)” value in series [3] amounted to 1. Further, the “Hepatotoxicity (benign tumour)” value in series [4] is 0. Moreover, in series [6], the “Hepatotoxicity (malignant tumour)” value came out at 0. Besides, in [7], the “Hepatotoxicity (time to onset)” value is listed as 2 weeks - 6 months. For the same compound, in series [8], the “Hepatotoxicity (cytolytic)” value was found to be 2. Also, the “Hepatotoxicity (granulomatous hepatitis)” value in series [9] is given as 0. Besides, the “Hepatotoxicity (animal toxicity known)” value in series [10] is reported as “yes”. In addition, the “Hepatotoxicity (cirrhosis)” value in series [11] came to 1. In series [12], the “Hepatotoxicity (choleostasis)” value was 0. Besides, the “Hepatotoxicity (association with vascular disease)” value in series [13] was determined as 0. Moreover, the “Hepatotoxicity (successful reintroduction)” value in series [14] was “yes”. The “Hepatotoxicity (severe hepatitis)” value in [19] was 1.
As for `COc1ccc2c(c1)c(CC(=O)O)c(C)n2C(=O)c1ccc(Cl)cc1` [INDOMETHACIN], the “Hepatotoxicity (acute)” value came to 1% in [15] and 17 in series [18]. For the same compound, the “Hepatotoxicity (steatosis)” value in series [2] is 0. Moreover, the “Hepatotoxicity (moderate)” value in series [16] was 7; in series [17], 25%. The “Hepatotoxicity (chronic liver disease)” value in series [3] amounted to 0. The “Hepatotoxicity (benign tumour)” value in [4] worked out at 0. The “Hepatotoxicity (mechanism)” value in [5] is “Allergic, Reactive metabolite”. Further, in series [6], the “Hepatotoxicity (malignant tumour)” value turned out to be 0. Further, in series [7], the “Hepatotoxicity (time to onset)” value turned out to be 3 days - 10 years. Further, the “Hepatotoxicity (cytolytic)” value in [8] worked out at 8. For the same compound, the “Hepatotoxicity (granulomatous hepatitis)” value in series [9] is listed as 0. Also, the “Hepatotoxicity (animal toxicity known)” value in series [10] is given as “yes”. Moreover, in [11], the “Hepatotoxicity (cirrhosis)” value is given as 0. The “Hepatotoxicity (choleostasis)” value in [12] is on record as 10. In [13], the “Hepatotoxicity (association with vascular disease)” value came to 0. Moreover, the “Hepatotoxicity (successful reintroduction)” value in series [14] is given as “yes”. For the same compound, in [19], the “Hepatotoxicity (severe hepatitis)” value was found to be 5.
With `Cc1ncc([N+](=O)[O-])n1CCO` [METRONIDAZOLE], the results for the “Hepatotoxicity (acute)” value in series [15] (Liver) and in series [18] were 0% and 10, respectively. The “Hepatotoxicity (steatosis)” value in series [2] is listed as 0. For the same compound, the “Hepatotoxicity (moderate)” value is 4 in series [16] and 25% in [17] (Liver). Moreover, the “Hepatotoxicity (chronic liver disease)” value in [3] is recorded as 0. Also, the “Hepatotoxicity (benign tumour)” value in [4] was 0. Further, in series [5], the “Hepatotoxicity (mechanism)” value was “Dose-dependant”. In series [6], the “Hepatotoxicity (malignant tumour)” value stood at 0. Besides, in series [7], the “Hepatotoxicity (time to onset)” value is 1 day - 2.3 months. Besides, the “Hepatotoxicity (cytolytic)” value in [8] is given as 8. The “Hepatotoxicity (granulomatous hepatitis)” value in [9] is listed as 0. The “Hepatotoxicity (animal toxicity known)” value in series [10] is “yes”. The “Hepatotoxicity (cirrhosis)” value in series [11] was 0. In addition, the “Hepatotoxicity (choleostasis)” value in series [12] was found to be 2. In series [13], the “Hepatotoxicity (association with vascular disease)” value was found to be 0. In addition, the “Hepatotoxicity (successful reintroduction)” value in [14] is “yes”. In [19] (Liver), the “Hepatotoxicity (severe hepatitis)” value came to 1.
Take `CN(N=O)C(=O)N[C@@H](C=O)[C@@H](O)[C@H](O)[C@H](O)CO` [STREPTOZOCIN]: the “Hepatotoxicity (acute)” value was determined as 35.3% in [15] and 3 in series [18]. Also, the “Hepatotoxicity (comment)” value in [1] is “CHOLANGITE/IAH”. The “Hepatotoxicity (steatosis)” value in [2] amounted to 0. The entries for the “Hepatotoxicity (moderate)” value in [16] and in [17] were 9 and 67%, respectively. In addition, the “Hepatotoxicity (chronic liver disease)” value in [3] is reported as 0. Besides, the “Hepatotoxicity (benign tumour)” value in series [4] was found to be 0. For the same compound, the “Hepatotoxicity (malignant tumour)” value in series [6] worked out at 0. Moreover, the “Hepatotoxicity (time to onset)” value in [7] worked out at 4 days - 6 weeks. For the same compound, in [8], the “Hepatotoxicity (cytolytic)” value is listed as 1. For the same compound, the “Hepatotoxicity (granulomatous hepatitis)” value in series [9] worked out at 0. Further, in series [10], the “Hepatotoxicity (animal toxicity known)” value is recorded as “yes”. Further, in [11], the “Hepatotoxicity (cirrhosis)” value is 0. Besides, the “Hepatotoxicity (choleostasis)” value in series [12] was 0. For the same compound, the “Hepatotoxicity (association with vascular disease)” value in series [13] was 0. The “Hepatotoxicity (successful reintroduction)” value in series [14] is reported as “yes”. Moreover, the “Hepatotoxicity (severe hepatitis)” value in [19] worked out at 2.
As for `Nc1c2c(nc3ccccc13)CCCC2` [TACRINE], the “Hepatotoxicity (acute)” value came to 13.4% in series [15] (Liver) and 22 in [18]. Further, in series [2], the “Hepatotoxicity (steatosis)” value turned out to be 1. In addition, the “Hepatotoxicity (moderate)” value came to 38 in series [16] and 54% in series [17] (Liver). In series [3], the “Hepatotoxicity (chronic liver disease)” value stood at 0. For the same compound, in series [4], the “Hepatotoxicity (benign tumour)” value was 0. In addition, the “Hepatotoxicity (mechanism)” value in [5] (Liver) is reported as “Dose-dependant”. For the same compound, the “Hepatotoxicity (malignant tumour)” value in series [6] came to 0. Besides, in [7], the “Hepatotoxicity (time to onset)” value is 1 week - 1.7 years. For the same compound, the “Hepatotoxicity (cytolytic)” value in series [8] (Liver) is listed as 19. The “Hepatotoxicity (granulomatous hepatitis)” value in [9] (Liver) came to 4. For the same compound, the “Hepatotoxicity (animal toxicity known)” value in [10] is “yes”. Further, the “Hepatotoxicity (cirrhosis)” value in series [11] worked out at 0. Besides, the “Hepatotoxicity (choleostasis)” value in series [12] (Liver) is recorded as 1. Besides, the “Hepatotoxicity (association with vascular disease)” value in series [13] is 0. For the same compound, the “Hepatotoxicity (successful reintroduction)” value in series [14] is on record as “yes”. For the same compound, the “Hepatotoxicity (severe hepatitis)” value in series [19] (Liver) was determined as 2.
